Data taken from US7877928B2, “Apparatus for use with a method for mass production of seedling of seed potato” (Koesan County, priority 2005, dated 2011).

Tests used:
[1] = test system: in vitro potato seedlings, potato cultivar "Superior"; test: Seedling quality (growth state) of in vitro tissue-cultured potato plantlets according to supplemented components of MS medium; assay type: in vivo
Protocol: (§1) In order to determine conditions suitable for planting through stem cutting and acclimatizing tissue-cultured plantlets in DSCAC, the in vitro potato seedlings were evaluated for seedling quality and survival rates upon stem-cutting and acclimation according to the amount of supplemented components of MS medium.
(§2) The culture seedlings obtained from growing points collected from a seed potato cultivar, were tested for infection with viruses (PLRV, PVY, PVX, PVM, PVS and AMV) for selection of disease-free individuals. Then, plantlets were planted in 500-ml culture bottles containing 200 ml of a solid medium, which was prepared with a basic MS medium of pH 5.8 supplemented with 9 g/L of agar, and incubated for 25 days in a culture room under 4,500 Lux lighting for 18-20 hrs, and 0 Lux for 4-6 hrs using 4D fluorescent lamps, wherein the room temperature was maintained at 21° C. using an air conditioner. The in vitro potato seedlings were examined for growth states and survival rates upon stem-cutting and acclimation according to the amount of supplemented components of the medium.

[2] = test system: in vitro potato seedlings, potato cultivar "Superior"; test: Survival rates of stem cuttings of in vitro potato seedlings upon stem-cutting and acclimation according to supplemented components of MS medium; assay type: in vivo
Protocol: as §1, §2

[3] = coumarin 0.010 mg/L + sucrose 30 g/L in MS medium
[4] = coumarin 0.010 mg/L + sucrose 80 g/L in MS medium
[5] = coumarin 0.015 mg/L + sucrose 30 g/L in MS medium
[6] = coumarin 0.015 mg/L + sucrose 80 g/L in MS medium
[7] = coumarin 0.020 mg/L + sucrose 30 g/L in MS medium
[8] = coumarin 0.020 mg/L + sucrose 80 g/L in MS medium
[9] = coumarin 0.025 mg/L + sucrose 30 g/L in MS medium
[10] = coumarin 0.025 mg/L + sucrose 80 g/L in MS medium
[11] = coumarin 0.030 mg/L + sucrose 30 g/L in MS medium
[12] = coumarin 0.030 mg/L + sucrose 80 g/L in MS medium
[13] = coumarin 0.035 mg/L + sucrose 30 g/L in MS medium
[14] = coumarin 0.035 mg/L + sucrose 80 g/L in MS medium
[15] = Table 2: sucrose 30 g/L, coumarin 0 mg/L in MS medium
[16] = Table 2: sucrose 80 g/L, coumarin 0 mg/L in MS medium
[17] = Table 3: sucrose 30 g/L, hyponex 0 g/L in MS medium
[18] = Table 3: sucrose 80 g/L, hyponex 0 g/L in MS medium
[19] = sucrose 20 g/L in MS medium, 25 days
[20] = sucrose 40 g/L in MS medium, 25 days
[21] = sucrose 60 g/L in MS medium, 25 days
[22] = sucrose 80 g/L in MS medium, 25 days
[23] = sucrose 100 g/L in MS medium, 25 days
[24] = sucrose 120 g/L in MS medium, 25 days
[25] = sucrose 140 g/L in MS medium, 25 days

## O=c1ccc2ccccc2o1 [Coumarin, coumarin]
[1]; MS medium with 80 g/L sucrose and 0.025 mg/L coumarin, compared with other amounts
  Seedling quality and survival rates: highest seedling quality and survival rates
[1]; [3]
  Fresh weight: 0.57 g/plant
  Plant length: 6.1 cm/plant
[1]; [4]
  Fresh weight: 1.12 g/plant
  Plant length: 7.8 cm/plant
[1]; [5]
  Fresh weight: 0.63 g/plant
  Plant length: 6.5 cm/plant
[1]; [6]
  Fresh weight: 1.13 g/plant
  Plant length: 7.9 cm/plant
[1]; [7]
  Fresh weight: 0.71 g/plant
  Plant length: 6.7 cm/plant
[1]; [8]
  Fresh weight: 1.31 g/plant
  Plant length: 8.1 cm/plant
[1]; [9]
  Fresh weight: 0.84 g/plant
  Plant length: 6.9 cm/plant
[1]; [10]
  Fresh weight: 1.65 g/plant
  Plant length: 9.5 cm/plant
[1]; [11]
  Fresh weight: 0.86 g/plant
  Plant length: 6.7 cm/plant
[1]; [12]
  Fresh weight: 1.39 g/plant
  Plant length: 8.3 cm/plant
[1]; [13]
  Fresh weight: 0.71 g/plant
  Plant length: 6.4 cm/plant
[1]; [14]
  Fresh weight: 1.36 g/plant
  Plant length: 8.2 cm/plant
[2]; [3]
  Survival rates of stem cuttings: 73
[2]; [4]
  Survival rates of stem cuttings: 90
[2]; [5]
  Survival rates of stem cuttings: 78
[2]; [6]
  Survival rates of stem cuttings: 92
[2]; [7]
  Survival rates of stem cuttings: 80
[2]; [8]
  Survival rates of stem cuttings: 100
[2]; [9]
  Survival rates of stem cuttings: 83
[2]; [10]
  Survival rates of stem cuttings: 100
[2]; [11]
  Survival rates of stem cuttings: 88
[2]; [12]
  Survival rates of stem cuttings: 100
[2]; [13]
  Survival rates of stem cuttings: 81
[2]; [14]
  Survival rates of stem cuttings: 100

## OC[C@H]1O[C@@](CO)(O[C@H]2O[C@H](CO)[C@@H](O)[C@H](O)[C@H]2O)[C@@H](O)[C@@H]1O [Sucrose, sucrose]
[1]; [15]
  Fresh weight: 0.53 g/plant
  Plant length: 5.3 cm/plant
[1]; [16]
  Fresh weight: 0.72 g/plant
  Plant length: 8.6 cm/plant
[1]; [17]
  Fresh weight: 0.53 g/plant
  Plant length: 7.2 cm/plant
[1]; [18]
  Fresh weight: 1.03 g/plant
  Plant length: 7.59 cm/plant
[1]; [19]
  Fresh weight: 0.47 g/plant
  Plant length: 6.2 cm/plant
[1]; [20]
  Fresh weight: 0.53 g/plant
  Plant length: 7.4 cm/plant
[1]; [21]
  Fresh weight: 0.58 g/plant
  Plant length: 9.3 cm/plant
[1]; [22]
  Fresh weight: 0.75 g/plant
  Plant length: 9.5 cm/plant
[1]; sucrose 80 g/L in MS medium, compared with other amounts
  Benefit to in vitro plantlets (plant length, fresh weight, survival rates of stem cuttings): most beneficial
[1]; [23]
  Fresh weight: 0.69 g/plant
  Plant length: 6.1 cm/plant
[1]; [24]
  Fresh weight: 0.63 g/plant
  Plant length: 5.2 cm/plant
[1]; [25]
  Fresh weight: 0.67 g/plant
  Plant length: 2.1 cm/plant
[2]; [15]
  Survival rates of stem cuttings: 33
[2]; [16]
  Survival rates of stem cuttings: 70
[2]; [17]
  Survival rates of stem cuttings: 28
[2]; [18]
  Survival rates of stem cuttings: 79
[2]; sucrose 20 g/L in MS medium
  Survival rates of stem cuttings: 27%
[2]; sucrose 40 g/L in MS medium
  Survival rates of stem cuttings: 34%
[2]; sucrose 60 g/L in MS medium
  Survival rates of stem cuttings: 59%
[2]; sucrose 80 g/L in MS medium
  Survival rates of stem cuttings: 71%
[2]; sucrose 100 g/L in MS medium
  Survival rates of stem cuttings: 68%
[2]; sucrose 120 g/L in MS medium
  Survival rates of stem cuttings: 67%
[2]; sucrose 140 g/L in MS medium
  Survival rates of stem cuttings: 72%
